Measurements from patent publication US11851440B2, “Modulators of eukaryotic initiation factor 2B, compositions and methods” (Denali Therapeutics Inc., priority 2017, dated 2023).
Like-named read-outs stand apart in the source and are kept apart here.

Tested on: ISR pathway (ATF4 translation)
Test: ATF4 Nano Luciferase reporter integrated stress response (ISR) assay in H4 ATF4-NLuc cells
Conditions: compound 30 minutes, then 50 um sodium arsenite for 6 hours, luminescence readout
[1] = Homo sapiens, read-out: Activity (IC50), H4 ATF4-NLuc (clone 17) cells
[2] = Homo sapiens, H4 ATF4-NLuc (clone 17) cells

| Compound | IC50 [1] | also measured |
| --- | --- | --- |
| O=C(COc1ccc(Cl)c(F)c1)NC12CC(c3nnc(CN4CC(F)(F)C4)o3)(C1)C2 [Example 129, 2-(4-chloro-3-fluoro-phenoxy)-N-[3-[5-[(3,3-difluoroazetidin-1-yl)methyl]-1,3,4-oxadiazol-2-yl]-1-bicyclo[1.1.1]pentanyl]acetamide] | 1 to 10 µM | – |
| O=C(COc1ccc(Cl)c(F)c1)NC12CC(c3nnc(C4CN(CC(F)F)C4)o3)(C1)C2 [Example 130, 2-(4-chloro-3-fluoro-phenoxy)-N-[3-[5-[1-(2,2-difluoroethyl)azetidin-3-yl]-1,3,4-oxadiazol-2-yl]-1-bicyclo[1.1.1]pentanyl]acetamide] | < 1 µM | – |
| CC(C)(c1nnc(C23CC(NC(=O)COc4ccc(Cl)c(F)c4)(C2)C3)o1)C(F)F [Example 131, 2-(4-chloro-3-fluoro-phenoxy)-N-[3-[5-(2,2-difluoro-1,1-dimethyl-ethyl)-1,3,4-oxadiazol-2-yl]-1-bicyclo[1.1.1]pentanyl]acetamide] | > 10 µM | – |
| CN(CCO[C@H]1C[C@@H](OC(F)(F)F)C1)C12CC(NC(=O)COc3ccc(Cl)c(F)c3)(C1)C2 [Example 132, 2-(4-chloro-3-fluoro-phenoxy)-N-[3-[methyl-[2-[3-cis-(trifluoromethoxy)cyclobutoxy]ethyl]amino]-1-bicyclo[1.1.1]pentanyl]acetamide] | < 1 µM | – |
| O=C(CO[C@H]1C[C@@H](OC(F)(F)F)C1)NC12CC(n3cnc(-c4cccc(C(F)(F)F)c4)c3)(C1)C2 [Example 134] | < 1 µM | – |
| O=C(CO[C@H]1C[C@@H](OC(F)(F)F)C1)NC12CC(n3cnc(-c4ccc(F)cc4F)c3)(C1)C2 [Example 135] | < 1 µM | – |
| O=C(CO[C@H]1C[C@@H](OC(F)(F)F)C1)NC12CC(n3cnc(-c4ccc(F)cc4)c3)(C1)C2 [Example 136] | < 1 µM | IC50 [2]: 0.022 µM |
| O=C(CO[C@H]1C[C@@H](OC(F)(F)F)C1)NC12CC(n3cnc(-c4cccc(F)c4)c3)(C1)C2 [Example 137] | < 1 µM | – |
| O=C(CO[C@H]1C[C@@H](OC(F)(F)F)C1)NC12CC(n3cnc(-c4ccc(F)c(F)c4)c3)(C1)C2 [Example 138] | < 1 µM | – |
| Cc1ccc(-c2cn(C34CC(NC(=O)CO[C@H]5C[C@@H](OC(F)(F)F)C5)(C3)C4)cn2)cc1F [Example 140] | < 1 µM | – |
| O=C(CO[C@H]1C[C@H](OC(F)(F)F)C1)NC12CC(n3cnc(-c4ccc(Cl)cc4)c3)(C1)C2 [Example 141] | < 1 µM | – |
| Cc1cc(F)ccc1-c1cn(C23CC(NC(=O)CO[C@H]4C[C@@H](OC(F)(F)F)C4)(C2)C3)cn1 [Example 142] | < 1 µM | – |
| O=C(COc1ccc(F)c(F)c1)NC12CC(n3cnc([C@H]4C[C@@H](OC(F)(F)F)C4)c3)(C1)C2 [Example 143] | < 1 µM | – |
| O=C(COc1ccc(F)c(F)c1)NC12CC(n3cnc([C@H]4C[C@H](OC(F)(F)F)C4)c3)(C1)C2 [Example 144] | < 1 µM | – |
| O=C(COCCn1cc(F)cn1)NC12CC(n3cnc(-c4ccc(Cl)cc4)c3)(C1)C2 [Example 145] | < 1 µM | – |
| Cc1cc(-c2cn(C34CC(NC(=O)CO[C@H]5C[C@@H](OC(F)(F)F)C5)(C3)C4)cn2)ccc1F [Example 147] | < 1 µM | – |
| O=C(CO[C@H]1C[C@@H](OC(F)(F)F)C1)NC12CC(n3cnc(-c4ccc(C(F)(F)F)cc4F)c3)(C1)C2 [Example 148] | < 1 µM | IC50 [2]: 0.0026 µM |
| O=C(CO[C@H]1C[C@@H](OC(F)(F)F)C1)NC12CC(n3cnc(-c4ccc(C(F)(F)F)c(F)c4)c3)(C1)C2 [Example 149] | < 1 µM | – |
| O=C(CO[C@H]1C[C@@H](OC(F)(F)F)C1)NC12CC(n3cnc(-c4ccc(C(F)(F)F)cc4)c3)(C1)C2 [Example 150] | < 1 µM | – |
| O=C(COc1ccc(C(F)(F)F)nc1)NC12CC(n3cnc(C4CC(OC(F)(F)F)C4)c3)(C1)C2 (stereo not shown) [Example 151] | < 1 µM | IC50 [2]: 0.0355 µM |
| O=C(COCCOC(F)(F)F)NC12CC(n3cnc(-c4ccc(Cl)c(F)c4)c3)(C1)C2 [Example 152] | < 1 µM | IC50 [2]: 0.0382 µM |
| O=C(NC12CC(n3cnc(-c4ccc(Cl)c(F)c4)c3)(C1)C2)[C@H]1C[C@@H](OC(F)(F)F)C1 [Example 153] | < 1 µM | – |
| CC(C)(Oc1ccc(Cl)cc1)C(=O)NC12CC(c3nnc([C@H]4C[C@@H](OC(F)(F)F)C4)o3)(C1)C2 [Example 154] | < 1 µM | – |
| O=C(NC12CC(c3nnc([C@H]4C[C@@H](OC(F)(F)F)C4)o3)(C1)C2)c1ccc2cc(F)ccc2n1 [Example 189, 6-fluoro-N-[1-[5-[3-cis-(trifluoromethoxy)cyclobutyl]-1,3,4-oxadiazol-2-yl]-3-bicyclo[1.1.1]pentanyl]quinoline-2-carboxamide] | – | IC50 (H4 ATF4-NLuc (clone 17) cells): 0.0285 µM; IC50 (read-out: Activity (IC50), H4 ATF4-NLuc (clone 17) cells): < 1 µM |

Further lines, with some results ahead:

| IC50 [1] | Compound | also measured |
| --- | --- | --- |
| < 1 µM | O=C(NC12CC(n3cnc(-c4ccc(Cl)c(F)c4)c3)(C1)C2)C1CCN(CC(F)(F)F)CC1 [Example 155] | – |
| < 1 µM | O=C(COc1cccc(Cl)c1)NC12CC(c3nnc([C@H]4C[C@@H](OC(F)(F)F)C4)o3)(C1)C2 [Example 156] | – |
| < 1 µM | O=C(COc1ccc(C(F)(F)F)nc1)NC12CC(n3cnc(-c4ccc(F)c(F)c4)c3)(C1)C2 [Example 161] | IC50 [2]: 0.0134 µM |
| < 1 µM | O=C(COc1ccc(C(F)(F)F)cc1)NC12CC(c3nnc([C@H]4C[C@@H](OC(F)(F)F)C4)o3)(C1)C2 [Example 162, N-[1-[5-[3-cis-(trifluoromethoxy)cyclobutyl]-1,3,4-oxadiazol-2-yl]-3-bicyclo[1.1.1]pentanyl]-2-[4-(trifluoromethyl)phenoxy]acetamide] | IC50 [2]: 0.0149 µM |
| < 1 µM | O=C(COc1ccc(Br)cc1)NC12CC(c3nnc([C@H]4C[C@@H](OC(F)(F)F)C4)o3)(C1)C2 [Example 163] | IC50 [2]: 0.0085 µM |
| < 1 µM | O=C(NC12CC(c3nnc([C@H]4C[C@@H](OC(F)(F)F)C4)o3)(C1)C2)c1ccc(OC(F)(F)F)cn1 [Example 164] | – |
| < 1 µM | O=C(NC12CC(c3nnc(C4CC(OC(F)(F)F)C4)o3)(C1)C2)c1nc2cc(Cl)ccc2o1 (stereo not shown) [Example 165] | – |
| < 1 µM | O=C(NC12CC(c3nnc([C@H]4C[C@@H](OC(F)(F)F)C4)o3)(C1)C2)c1ccc2cc(C(F)(F)F)ccc2n1 [Example 166, N-[1-[5-[3-cis-(trifluoromethoxy)cyclobutyl]-1,3,4-oxadiazol-2-yl]-3-bicyclo[1.1.1]pentanyl]-6-(trifluoromethyl)quinoline-2-carboxamide] | IC50 [2]: 0.0081 µM |
| < 1 µM | O=C(NC12CC(c3nnc([C@H]4C[C@@H](OC(F)(F)F)C4)o3)(C1)C2)c1ccc2cc(Cl)cnc2c1 [Example 167, 3-chloro-N-[1-[5-[3-cis-(trifluoromethoxy)cyclobutyl]-1,3,4-oxadiazol-2-yl]-3-bicyclo[1.1.1]pentanyl]quinoline-7-carboxamide] | IC50 [2]: 0.0439 µM |
| < 1 µM | O=C(NC12CC(c3nnc([C@H]4C[C@@H](OC(F)(F)F)C4)o3)(C1)C2)c1cnc2cc(Cl)ccc2c1 [Example 168] | – |
| < 1 µM | O=C(NC12CC(c3nnc([C@H]4C[C@@H](OC(F)(F)F)C4)o3)(C1)C2)c1ccc2cc(Cl)ccc2n1 [Example 169] | IC50 [2]: 0.0038 µM |
| < 1 µM | O=C(NC12CC(c3nnc([C@H]4C[C@@H](OC(F)(F)F)C4)o3)(C1)C2)c1cn2ccc(F)cc2n1 [Example 170] | – |
| < 1 µM | O=C(NC12CC(c3nnc([C@H]4C[C@@H](OC(F)(F)F)C4)o3)(C1)C2)c1cc2ccc(Cl)cn2n1 [Example 171] | – |
| 1 to 10 µM | O=C(CO[C@H]1C[C@@H](n2nccn2)C1)NC12CC(c3nnc([C@H]4C[C@@H](OC(F)(F)F)C4)o3)(C1)C2 [Example 172] | – |
| < 1 µM | O=C(COc1cccc(OC(F)(F)F)c1)NC12CC(c3nnc([C@H]4C[C@@H](OC(F)(F)F)C4)o3)(C1)C2 [Example 173] | – |
| < 1 µM | O=C(COc1ccc(C(F)(F)F)nc1)NC12CC(c3nnc([C@H]4C[C@@H](OC(F)(F)F)C4)o3)(C1)C2 [Example 174] | – |
| < 1 µM | O=C(NC12CC(c3nnc([C@H]4C[C@@H](OC(F)(F)F)C4)o3)(C1)C2)c1nc2cc(Cl)ccc2s1 [Example 175] | – |
| < 1 µM | O=C(NC12CC(c3nnc([C@H]4C[C@@H](OC(F)(F)F)C4)o3)(C1)C2)c1nc2cc(Cl)ccn2n1 [Example 176] | – |
| < 1 µM | O=C(NC12CC(c3nnc([C@H]4C[C@@H](OC(F)(F)F)C4)o3)(C1)C2)c1cn2ncc(Cl)cc2n1 [Example 177] | – |
| 1 to 10 µM | O=C(NC12CC(c3nnc([C@H]4C[C@@H](OC(F)(F)F)C4)o3)(C1)C2)c1cn2cc(F)ccc2n1 [Example 180] | – |
| < 1 µM | O=C(NC12CC(c3nnc([C@H]4C[C@@H](OC(F)(F)F)C4)o3)(C1)C2)c1cc2ccc(Cl)n2cn1 [Example 181] | – |
| < 1 µM | O=C(NC12CC(c3nnc([C@H]4C[C@@H](OC(F)(F)F)C4)o3)(C1)C2)c1cc2ccc(Cl)cc2nn1 [Example 183] | – |
| < 1 µM | O=C(NC12CC(c3nnc([C@H]4C[C@@H](OC(F)(F)F)C4)o3)(C1)C2)c1cc2ccc(Br)cc2cn1 [Example 184] | – |
| < 1 µM | O=C(NC12CC(c3nnc([C@H]4C[C@@H](OC(F)(F)F)C4)o3)(C1)C2)c1cn2ccc(C(F)(F)F)cc2n1 [Example 185] | – |
| < 1 µM | O=C(NC12CC(c3nnc([C@H]4C[C@@H](OC(F)(F)F)C4)o3)(C1)C2)c1cn2cc(C(F)(F)F)ccc2n1 [Example 186] | – |
| < 1 µM | O=C(NC12CC(c3nnc([C@H]4C[C@@H](OC(F)(F)F)C4)o3)(C1)C2)c1ccc2ccccc2n1 [Example 187] | – |
| < 1 µM | O=C(NC12CC(c3nnc([C@H]4C[C@@H](OC(F)(F)F)C4)o3)(C1)C2)c1cnc2ccccc2n1 [Example 188] | – |
| < 1 µM | O=C(NC12CC(c3nnc([C@H]4C[C@@H](OC(F)(F)F)C4)o3)(C1)C2)c1ncc2ccccc2n1 [Example 191] | – |
| < 1 µM | O=C(NC12CC(c3nnc([C@H]4C[C@@H](OC(F)(F)F)C4)o3)(C1)C2)c1nc2ccc(Cl)cc2s1 [Example 192] | – |
